In publication PMC3989197, “A Novel Carbonyl Reductase with Anti-Prelog Stereospecificity from Acetobacter sp. CCTCC M209061: Purification and Characterization” (PLoS ONE, 2014):

Experiments:
[1] = tested on: T1, AcCR (carbonyl reductase); experiment: spectrophotometric initial rate at […] nm; format: biochemical, Acetobacter sp. CCTCC M209061
T1 construct: native purification from Acetobacter cells (ammonium sulfate, DEAE-Sepharose, Native-PAGE); homotetramer 104 kDa, subunit 27 kDa

[2] = tested on: T1, AcCR (carbonyl reductase); experiment: spectrophotometric initial rate at […] nm; Hill fit; format: biochemical, Acetobacter sp. CCTCC M209061; conditions: NADH-linked reduction (NADH fixed 1 mM), pH 5.0, 25°C; sigmoidal, cooperative
[3] = molecular target: carbonyl reductase from Acetobacter sp. CCTCC M209061 (AcCR) (Acetobacter sp. CCTCC M209061); experiment: SEC; gel permeation on Superdex G-200, 50 mM phosphate buffer pH 7.0 with 0.15 M NaCl, 0.2 ml/min, calibrated with mass markers; apparent native mass (104 kDa) compared with the subunit mass by SDS-PAGE (27 kDa)
[4] = oxidation of isopropanol (fixed 110 mM), pH 8.0, 35°C

CC(=O)c1ccc(Cl)cc1 [4′-chloroacetophenone]
Km ([1]; NADPH-linked reduction (NADPH fixed 0.1 mM), pH 7.5, 25°C): 2960 ± 87 µM
Km [2]: 4130 ± 157 µM

NC(=O)C1=CN([C@@H]2O[C@H](COP(=O)(O)OP(=O)(O)OC[C@H]3O[C@@H](n4cnc5c(N)ncnc54)[C@H](OP(=O)(O)O)[C@@H]3O)[C@@H](O)[C@H]2O)C=CC1 [NADPH]
Km ([1]; reduction of 4′-chloroacetophenone (fixed 5 mM), pH 7.5, 25°C): 26 ± 1 µM

NC(=O)c1ccc[n+]([C@@H]2O[C@H](COP(=O)(O)OP(=O)(O)OC[C@H]3O[C@@H](n4cnc5c(N)ncnc54)[C@H](O)[C@@H]3O)[C@@H](O)[C@H]2O)c1 [NAD^+]
Km [1, 4]: 1330 ± 45 µM

NC(=O)c1ccc[n+]([C@@H]2O[C@H](COP(=O)(O)OP(=O)(O)OC[C@H]3O[C@@H](n4cnc5c(N)ncnc54)[C@H](OP(=O)(O)O)[C@@H]3O)[C@@H](O)[C@H]2O)c1 [NADP^+]
Km [1, 4]: 1120 ± 35 µM

NC(=O)C1=CN([C@@H]2O[C@H](COP(=O)(O)OP(=O)(O)OC[C@H]3O[C@@H](n4cnc5c(N)ncnc54)[C@H](O)[C@@H]3O)[C@@H](O)[C@H]2O)C=CC1 [NADH]
Km ([1]; reduction of 4′-chloroacetophenone (fixed 5 mM), pH 5.0, 25°C): 660 ± 21 µM

CC(C)O [isopropanol]
Km ([1]; NAD+-linked oxidation (NAD+ fixed 5 mM), pH 8.0, 35°C): 48300 ± 986 µM

carbonyl reductase from Acetobacter sp. CCTCC M209061 (AcCR) (enzyme)
stoichiometry N [3]: 4
